Source: the supplement of paper PMC10307832

Legend:
[1] = compound: COc1cc(Nc2ncc(F)c(Nc3ccc4c(n3)NC(=O)C(C)(C)O4)n2)cc(OC)c1OC [R406] + O=C(CCCCCCC(=O)Nc1ccccc1)NO [Vorinostat] (partner 1 µM); assay: relative viability (nuclei count vs DMSO), 5 days (fraction); higher = more cells survive
Method in brief: (§1)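 After 5 days of treatment, lung cancer cells in 1536-well plates were fixed and stained in a single step (final 0.05% Triton X-100, 1% formaldehyde, 1 ug/ml Hoechst) and their nuclei counted on 4× images. Treatment had been applied by pin tool the day after seeding as one drug alone or as a fixed anchor-drug dose with five library-drug doses (not always all listed) in √10 steps. Relative viability is the nuclei count of treated wells divided by that of vehicle wells, and values are medians of duplicate plates.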

[2] = compound: COc1cc(Nc2ncc(F)c(Nc3ccc4c(n3)NC(=O)C(C)(C)O4)n2)cc(OC)c1OC [R406] + NC(=O)Nc1cc(-c2cccc(F)c2)sc1C(=O)N[C@H]1CCCNC1 [AZD7762] (partner 0.2 µM); assay: as above
Method in brief: as §1

Cell Line	relative viability ([1]; first compound 0.08 µM)	relative viability ([1]; first compound 0.253 µM)	relative viability ([1]; first compound 0.8 µM)	relative viability ([1]; first compound 2.53 µM)	relative viability ([1]; first compound 8 µM)	relative viability ([2]; first compound 0.08 µM)	relative viability ([2]; first compound 0.253 µM)	relative viability ([2]; first compound 0.8 µM)	relative viability ([2]; first compound 2.53 µM)	relative viability ([2]; first compound 8 µM)
NCI-H2228	0.693	0.64	0.786	0.281	0.175	–	–	–	–	–
EKVX	0.78	0.567	0.757	0.6	0.653	0.679	0.832	0.847	0.647	0.521
HOP-62	0.66	0.803	0.836	0.464	0.463	0.76	0.813	0.793	0.531	0.585
NCI-H2126	0.833	0.797	0.819	0.581	0.707	0.937	1.12	1.08	0.909	0.858
NCI-H1944	0.504	0.585	0.566	0.466	0.45	0.484	0.449	0.523	0.388	0.349
EPLC-272H	0.29	0.444	0.511	0.286	0.168	0.21	0.252	0.337	0.199	0.15
RERF-LC-KJ	0.669	0.811	0.732	0.583	0.552	1	1.23	1.29	0.692	0.988
NCI-H661	0.813	0.772	0.737	0.796	0.724	–	–	–	–	–
PC-14	0.71	0.84	0.975	0.523	0.451	0.296	0.435	0.418	0.403	0.281
COR-L 105	0.743	0.893	0.824	0.651	0.514	–	–	–	–	–
NCI-H2405	1	1.39	1.14	0.624	0.245	0.715	0.869	0.85	0.692	0.244
NCI-H1395	0.633	0.731	0.843	0.399	0.417	0.427	0.354	0.351	0.417	0.36
NCI-H727	1.01	1.26	1.22	1.24	1.18	0.675	0.666	0.535	0.681	0.747
NCI-H1915	0.506	0.631	0.546	0.403	0.369	0.687	0.751	0.735	0.614	0.614
NCI-H522	0.937	1.04	1.01	0.838	0.812	0.914	0.921	0.813	0.823	0.765
CAL-12T	0.785	0.723	0.758	0.762	0.509	0.531	0.641	0.695	0.714	0.637
NCI-H441	0.669	0.754	0.76	0.905	0.699	1.03	1.03	1.26	0.953	0.958
LXF-289	0.632	0.772	0.787	0.654	0.616	1.03	1.19	1.11	0.88	0.762

Cell Line	relative viability ([1]; first compound 0.08 µM)	relative viability ([1]; first compound 0.253 µM)	relative viability ([1]; first compound 0.8 µM)	relative viability ([1]; first compound 2.53 µM)	relative viability ([1]; first compound 8 µM)	relative viability ([2]; first compound 0.08 µM)	relative viability ([2]; first compound 0.253 µM)	relative viability ([2]; first compound 0.8 µM)	relative viability ([2]; first compound 2.53 µM)	relative viability ([2]; first compound 8 µM)
NCI-H520	0.671	0.698	0.668	0.384	0.162	–	–	–	–	–
NCI-H1648	0.457	0.427	0.562	0.468	0.643	0.719	0.618	0.67	0.554	0.633
NCI-H2009	0.711	0.749	0.785	0.739	0.363	–	–	–	–	–
SW 900	0.475	0.844	0.577	0.134	0.15	0.536	0.814	0.787	0.232	0.146
201T	0.893	1.02	1.02	0.795	0.749	0.615	0.685	0.664	0.762	0.836
NCI-H23	0.605	0.635	0.734	0.155	0.216	0.215	0.265	0.283	0.25	0.269
LOU-NH91	0.926	0.993	0.914	0.53	0.498	0.718	0.769	0.706	0.574	0.473
IA-LM	0.984	0.756	1.04	0.99	1.05	–	–	–	–	–
NCI-H2085	0.749	0.8	0.847	0.691	0.561	1.03	1	1.02	0.72	0.726
COR-L23	0.483	0.433	0.424	0.279	0.244	–	–	–	–	–
BEN	0.606	0.601	0.607	0.555	0.542	0.816	0.814	0.796	0.828	0.523
ChaGo-K-1	0.755	0.839	0.822	0.609	0.637	0.799	0.957	0.999	0.873	0.744
LK-2	0.205	0.404	0.293	0.291	0.237	0.373	0.407	0.333	0.354	0.104
NCI-H322M	0.816	0.873	0.864	0.633	0.468	0.453	0.54	0.588	0.36	0.423
NCI-H596	0.659	0.681	0.72	0.38	0.263	1.08	1.1	0.977	0.825	0.836
ABC-1	1.33	1.37	1.35	1.11	0.765	0.912	0.769	0.865	0.858	0.669
NCI-H1666	1.02	1.09	1.05	1.1	1.03	1.12	0.937	0.893	0.892	0.773
NCI-H1993	0.892	1.03	0.963	0.433	0.447	0.741	1.1	0.727	0.719	0.537
